Reference: patent publication US5047431A, “1,1,2-triphenylbut-1-ene derivatives” (Klinge Pharma GmbH & Co., priority 1980, dated 1991)
Entries after “also recorded” stand apart in the source; their conditions may differ.

What was measured:
[1] = tested on: 7,12-dimethylbenz(a)anthracene-induced mammary tumor; assay: Inhibitory effect on the 7,12-dimethylbenz(a)anthracene-induced mammary tumor; type: in vivo, female Sprague-Dawley rat (Hanover breed); settings: compared with tamoxifen under the same test conditions
Description: Twice weekly and on the 28th day of testing the number of animals was determined and the tumor surface (mm^2 /animal) of the therapy animals and control animals was measured. At the end of testing, the percentage increase of the average tumor surface of the treated animals was determined in comparison to the control animals, the surface of the latter being taken as 100%.

estradiol receptor = target: T1, estradiol receptor (Oryctolagus cuniculus, UniProt G1SML6); assay: Binding affinity to the estradiol receptor (displacement of [3H]-estradiol from uterus cytosol); design: species or system rabbit (New Zealand rabbits); settings: uterus cytosol of prepuberal rabbits, 18 hours at 4° C., 2.5×10^-9 M [3H]-estradiol; read-out: ED50% (concentration of the substance which replaces 50% [3H]-estradiol from the estradiol receptor)
T1 construct: The uterus cytosol of female, prepuberal white rabbits; from tissue; host or cells: uterus cytosol of female prepuberal New Zealand white rabbits
T1 sequence (G1SML6 1-598): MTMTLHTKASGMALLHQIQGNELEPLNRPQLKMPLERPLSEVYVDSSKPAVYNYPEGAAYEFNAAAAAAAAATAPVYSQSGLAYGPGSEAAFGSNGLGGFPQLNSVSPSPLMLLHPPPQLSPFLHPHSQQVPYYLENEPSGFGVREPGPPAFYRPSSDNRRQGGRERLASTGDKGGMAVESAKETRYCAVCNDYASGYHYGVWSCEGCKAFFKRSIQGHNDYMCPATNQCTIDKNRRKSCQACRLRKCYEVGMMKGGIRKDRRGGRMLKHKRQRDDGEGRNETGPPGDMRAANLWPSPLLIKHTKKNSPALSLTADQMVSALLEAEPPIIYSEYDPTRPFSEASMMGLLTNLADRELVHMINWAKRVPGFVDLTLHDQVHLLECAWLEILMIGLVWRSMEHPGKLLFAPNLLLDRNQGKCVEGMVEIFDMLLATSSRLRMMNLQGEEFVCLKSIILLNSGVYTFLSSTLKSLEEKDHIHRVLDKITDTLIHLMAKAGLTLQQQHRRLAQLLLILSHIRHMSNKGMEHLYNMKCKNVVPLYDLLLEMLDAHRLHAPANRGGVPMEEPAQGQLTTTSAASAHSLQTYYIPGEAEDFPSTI
Description: The determination of the binding affinity to the estradiol receptor was made using rabbit uterus cytosol.
The binding affinity to the estradiol receptor was measured according to the method of N. Devleeschouwer, G. Leclercq, A. Danguy and J.C. Heuson [Europ.
H]-estradiol from the estradiol receptor.

[2] = tested on: hormone-dependent mammary; settings: background art; cited from earlier work
[3] = background art; cited from earlier work

Structure (SMILES) | inhibitory activity on the mammary tumor (in words) [1] | IC50 (estradiol receptor) | therapy of hormone-dependent mammary tumors (in words) [2] | anti-estrogenic activity (in words) [3]
CC/C(=C(/c1ccc(OCCN(C)C)cc1)c1cccc(O)c1)c1ccccc1 [Compound 1, (E)-1-[4'-(2-Dimethylaminoethoxy)phenyl]-1-(3-hydroxyphenyl)-2-phenylbut-1-ene] | above the activity of tamoxifen; also recorded: clearly superior to tamoxifen in the inhibitory activity on the tumor | 24 nM |  | 
CC/C(=C(/c1ccc(OCCN(CC)CC)cc1)c1cccc(O)c1)c1ccccc1 [Compound 2, (E)-1-[4'-(2-Diethylaminoethoy)phenyl]-1-(3'-hydroxyphenyl)-2-phenylbut-1-ene] |  | 65 nM |  | 
CC/C(=C(\c1ccccc1)c1ccc(OCCN(C)C)cc1)c1ccccc1 [Tamoxifen, (Z)-1-[4'-(2-dimethylaminoethoxy)phenyl]-1,2-diphenylbut-1-ene] |  |  | already proved successful in the therapy of hormone-dependent mammary | marked anti-estrogenic activity
CC/C(=C(\c1ccc(O)cc1)c1ccc(OCCN(C)C)cc1)c1ccccc1 [4-hydroxytamoxifen] |  |  |  | antiestrogenic effect comparable to tamoxifen
CC/C(=C(/c1ccc(OCCNC)cc1)c1cccc(O)c1)c1ccccc1 [Compound 3, (E)-1-(3'-Hydroxyphenyl)-1-[4'-(2-methylaminoethoxy)phenyl]-2-phenylbut-1-ene] |  | 37 nM |  | 
